Data reported in ChEMBL document CHEMBL1127045 (J Med Chem, 1993).

molecular target: Serotonin 2 (5-HT2) receptor (Mus musculus) (UniProt Q02152+P34968+P35363); experiment: Effective dose through peroral route for in vivo inhibition against 5-hydroxytryptamine 2 receptor in male CF-1 mice by using radioligand [3H]ketanserin; type: organism-based
Sequence (P34968 whole entry, looked up): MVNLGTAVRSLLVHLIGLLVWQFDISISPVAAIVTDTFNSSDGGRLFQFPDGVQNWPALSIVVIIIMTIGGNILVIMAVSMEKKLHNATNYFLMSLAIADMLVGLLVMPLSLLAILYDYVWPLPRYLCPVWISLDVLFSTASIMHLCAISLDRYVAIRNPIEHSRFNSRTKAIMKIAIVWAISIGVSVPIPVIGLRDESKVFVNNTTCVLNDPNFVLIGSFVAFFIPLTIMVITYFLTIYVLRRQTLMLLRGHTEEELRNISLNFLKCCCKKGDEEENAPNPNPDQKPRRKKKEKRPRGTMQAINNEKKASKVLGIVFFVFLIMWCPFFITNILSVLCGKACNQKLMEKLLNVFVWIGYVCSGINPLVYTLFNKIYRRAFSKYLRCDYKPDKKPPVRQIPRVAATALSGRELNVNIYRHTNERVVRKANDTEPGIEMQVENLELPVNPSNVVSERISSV
Sequence (P35363 whole entry, looked up): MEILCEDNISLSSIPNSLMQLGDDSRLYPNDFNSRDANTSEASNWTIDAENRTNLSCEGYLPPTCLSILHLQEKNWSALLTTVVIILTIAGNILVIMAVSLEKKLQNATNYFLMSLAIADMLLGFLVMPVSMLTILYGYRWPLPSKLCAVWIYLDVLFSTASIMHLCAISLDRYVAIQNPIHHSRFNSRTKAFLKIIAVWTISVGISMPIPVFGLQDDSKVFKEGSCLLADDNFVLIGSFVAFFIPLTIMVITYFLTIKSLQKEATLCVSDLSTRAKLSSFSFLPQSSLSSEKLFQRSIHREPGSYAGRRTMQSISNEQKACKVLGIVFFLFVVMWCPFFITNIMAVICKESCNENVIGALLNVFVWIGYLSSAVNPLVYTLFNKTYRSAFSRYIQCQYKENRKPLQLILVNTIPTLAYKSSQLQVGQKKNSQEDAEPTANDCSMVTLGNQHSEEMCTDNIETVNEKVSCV
Sequence (Q02152 whole entry, looked up): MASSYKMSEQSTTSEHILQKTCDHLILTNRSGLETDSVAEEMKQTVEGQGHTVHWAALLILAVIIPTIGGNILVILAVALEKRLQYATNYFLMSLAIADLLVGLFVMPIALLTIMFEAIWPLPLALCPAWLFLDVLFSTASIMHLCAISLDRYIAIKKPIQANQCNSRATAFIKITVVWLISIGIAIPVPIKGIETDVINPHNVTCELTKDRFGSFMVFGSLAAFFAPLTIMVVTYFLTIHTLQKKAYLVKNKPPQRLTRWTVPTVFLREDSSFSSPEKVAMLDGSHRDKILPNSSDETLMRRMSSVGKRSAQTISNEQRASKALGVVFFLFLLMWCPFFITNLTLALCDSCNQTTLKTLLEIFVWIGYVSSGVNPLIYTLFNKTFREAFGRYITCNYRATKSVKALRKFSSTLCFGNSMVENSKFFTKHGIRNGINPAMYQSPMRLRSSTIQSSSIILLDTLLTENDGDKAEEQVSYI

`O=C(CCCN1C2CCC1c1c([nH]c3ccccc13)C2)c1ccccc1` (stereo unspecified) gave an inhibition of 12%.

First: O=C(CCCN1C2CCC1c1c([nH]c3ccc(F)cc13)C2)c1ccc(F)cc1 (stereo unspecified)
Second: O=C(CCCN1C2CCCC1c1c([nH]c3ccc(F)cc13)C2)c1ccc(F)cc1 (stereo unspecified)
The ED50 of the first is 7-fold higher: 41.1 mg/kg for the first, 5.89 mg/kg for the second.

Compared with `Cc1nc2sccn2c(=O)c1CCN1CCC(=C(c2ccc(F)cc2)c2ccc(F)cc2)CC1` [RITANSERIN], `O=C(CCCN1C2CCCC1c1c([nH]c3ccccc13)C2)c1ccc(F)cc1` (stereo unspecified) is 120-fold higher in ED50: 0.14 mg/kg for the first, 16.3 mg/kg for the second.

First: O=C(CCCCN1C2CCC1c1c([nH]c3ccccc13)C2)c1ccc(F)cc1 (stereo unspecified)
Second: O=C(CCCN1C2CCC1c1c([nH]c3ccccc13)C2)c1ccc(F)cc1 (stereo unspecified)
The ED50 of the first is 2.9-fold lower: 7.32 mg/kg for the first, 20.9 mg/kg for the second.

Work on `O=C(CCCCN1C2CCC1c1c([nH]c3ccc(F)cc13)C2)c1ccccc1` (stereo unspecified) yielded an ED50 of 0.65 mg/kg.

molecular target: D(2) dopamine receptor (Rattus norvegicus, UniProt P61169); experiment: Binding affinity against dopamine receptor D2 from rat corpus striatum by using radioligand [3H]sulpiride
Sequence (P61169 whole entry): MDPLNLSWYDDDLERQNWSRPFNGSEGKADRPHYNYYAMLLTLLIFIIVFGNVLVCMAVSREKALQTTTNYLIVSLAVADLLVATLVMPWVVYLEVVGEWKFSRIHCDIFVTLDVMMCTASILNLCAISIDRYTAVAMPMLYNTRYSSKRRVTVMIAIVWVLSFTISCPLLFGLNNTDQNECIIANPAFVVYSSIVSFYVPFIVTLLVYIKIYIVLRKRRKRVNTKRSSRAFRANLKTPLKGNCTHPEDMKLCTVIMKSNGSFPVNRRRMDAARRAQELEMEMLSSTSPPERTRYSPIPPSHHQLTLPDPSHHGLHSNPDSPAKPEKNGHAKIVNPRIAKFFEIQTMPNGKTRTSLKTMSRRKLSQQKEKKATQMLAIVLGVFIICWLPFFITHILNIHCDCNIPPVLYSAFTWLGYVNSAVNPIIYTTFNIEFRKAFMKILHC

Compared with `O=S1(=O)c2cccc3cccc(c23)N1CCCCN1C2CCC1c1c([nH]c3ccc(F)cc13)C2` (stereo unspecified), `O=C(CCCCN1C2CCC1c1c([nH]c3ccc(F)cc13)C2)c1ccccc1` (stereo unspecified) is 360-fold lower in Ki: 1010 nM for the first, 2.77 nM for the second. The second binds more tightly here.

`c1ccc2c(CCCN3C4CCC3c3c([nH]c5ccccc35)C4)c[nH]c2c1` (stereo unspecified) and `c1ccc2c(CCCCN3C4CCC3c3c([nH]c5ccccc35)C4)c[nH]c2c1` (stereo unspecified) are within 1.5-fold of each other in Ki: 1160 nM for the first, 853 nM for the second.

Going from `O=C(CCCCN1C2CCCC1c1c([nH]c3ccccc13)C2)c1ccccc1` (stereo unspecified) to `O=C(CCCN1C2CCC1c1c([nH]c3ccccc13)C2)c1ccccc1` (stereo unspecified), the Ki rises from 43.5 nM to 540 nM (12-fold).

Going from `c1ccc2c(c1)ccn2CCCCN1C2CCC1c1c([nH]c3ccccc13)C2` (stereo unspecified) to `c1ccc2sc(CCCCN3C4CCC3c3c([nH]c5ccccc35)C4)cc2c1` (stereo unspecified), the Ki falls from 635 nM to 416 nM (1.5-fold).

First: Fc1ccc(CCCCN2C3CCCC2c2c([nH]c4ccc(F)cc24)C3)cc1 (stereo unspecified)
Second: Fc1ccc(CCCCN2C3CCCC2c2c([nH]c4ccccc24)C3)cc1 (stereo unspecified)
The Ki of the first is 2-fold higher: 1960 nM for the first, 973 nM for the second.

First: O=C(CCCCN1C2CCC1c1c([nH]c3ccc(F)cc13)C2)c1ccc(F)cc1 (stereo unspecified)
Second: O=C(CCCN1C2CCC1c1c([nH]c3ccccc13)C2)c1ccc(F)cc1 (stereo unspecified)
The Ki of the first is 8.1-fold lower: 34.1 nM for the first, 275 nM for the second.

Compared with `Cn1c2c(c3ccccc31)C1CCC(C2)N1CCCC(=O)c1ccc(F)cc1` (stereo unspecified), `O=C(CCCCN1C2CCCC1c1c([nH]c3ccc(F)cc13)C2)c1ccccc1` (stereo unspecified) is 4-fold lower in Ki: 287 nM for the first, 72 nM for the second. The second binds more tightly here.

First: O=C1c2ccccc2C(=O)N1CCCCN1C2CCC1c1c([nH]c3ccccc13)C2 (stereo unspecified)
Second: c1ccc(CCCCN2C3CCCC2c2c([nH]c4ccccc24)C3)cc1 (stereo unspecified)
The Ki of the first is 3.9-fold higher: 2630 nM for the first, 670 nM for the second.

Going from `Cc1nc2sccn2c(=O)c1CCN1CCC(=C(c2ccc(F)cc2)c2ccc(F)cc2)CC1` [RITANSERIN] to `Fc1ccc2c(CCCN3C4CCCC3c3c([nH]c5ccc(F)cc35)C4)noc2c1` (stereo unspecified), the Ki rises from 93 nM to 248 nM (2.7-fold).

First: Fc1ccc2c(CCCCN3C4CCCC3c3c([nH]c5cccc(F)c35)C4)noc2c1 (stereo unspecified)
Second: O=C(CCCN1C2CCC1c1c([nH]c3ccc(F)cc13)C2)c1ccco1 (stereo unspecified)
The Ki of the first is 4.9-fold lower: 131 nM for the first, 643 nM for the second. The first binds more tightly here.

Going from `O=C1CC2CCC(C1)N2CCCC(=O)c1ccc(F)cc1` to `O=C(CCCN1C2CCC1c1c([nH]c3ccccc13)C2)c1cccs1` (stereo unspecified), the Ki rises from 1.3 nM to 550 nM (420-fold). The first binds more tightly here.

For `c1ccc2c3c([nH]c2c1)CC1CCC3N1` (stereo unspecified), the Ki was greater than 10000 nM.

molecular target: 5-HT2A receptor (Rattus norvegicus); experiment: Binding affinity against 5-hydroxytryptamine 2 receptor from rat cortical synaptosomal membrane using radioligand [3H]ketanserin.

Compared with `O=S1(=O)c2cccc3cccc(c23)N1CCCCN1C2CCC1c1c([nH]c3ccc(F)cc13)C2` (stereo unspecified), `O=C(CCCCN1C2CCC1c1c([nH]c3ccc(F)cc13)C2)c1ccccc1` (stereo unspecified) is 420-fold lower in Ki: 1245 nM for the first, 2.98 nM for the second.

First: O=C(CCCCN1C2CCCC1c1c([nH]c3ccccc13)C2)c1ccccc1 (stereo unspecified)
Second: O=C(CCCN1C2CCC1c1c([nH]c3ccccc13)C2)c1ccccc1 (stereo unspecified)
The Ki of the first is 3.2-fold higher: 20.9 nM for the first, 6.55 nM for the second.

Going from `c1ccc2c(CCCCN3C4CCC3c3c([nH]c5ccccc35)C4)c[nH]c2c1` (stereo unspecified) to `c1ccc2sc(CCCCN3C4CCC3c3c([nH]c5ccccc35)C4)cc2c1` (stereo unspecified), the Ki rises from 329 nM to 610 nM (1.9-fold).

First: c1ccc2c(c1)ccn2CCCCN1C2CCC1c1c([nH]c3ccccc13)C2 (stereo unspecified)
Second: O=C1c2ccccc2C(=O)N1CCCCN1C2CCC1c1c([nH]c3ccccc13)C2 (stereo unspecified)
The Ki of the first is 3.1-fold lower: 284 nM for the first, 879 nM for the second.

First: Fc1ccc(CCCCN2C3CCCC2c2c([nH]c4ccc(F)cc24)C3)cc1 (stereo unspecified)
Second: Fc1ccc(CCCCN2C3CCCC2c2c([nH]c4ccccc24)C3)cc1 (stereo unspecified)
The Ki of the first is 5.8-fold higher: 143 nM for the first, 24.5 nM for the second.

Going from `Cn1c2c(c3ccccc31)C1CCC(C2)N1CCCC(=O)c1ccc(F)cc1` (stereo unspecified) to `O=C(CCCN1C2CCC1c1c(n(-c3ccccc3)c3ccccc13)C2)c1ccc(F)cc1` (stereo unspecified), the Ki rises from 2.83 nM to 330 nM (120-fold).

Going from `Fc1ccc2[nH]c3c(c2c1)C1CCCC(C3)N1CCCCc1ccccc1` (stereo unspecified) to `c1ccc(CCCCN2C3CCCC2c2c([nH]c4ccccc24)C3)cc1` (stereo unspecified), the Ki falls from 172 nM to 103 nM (1.7-fold).

Compared with `Fc1ccc2c(CCCCN3C4CCCC3c3c([nH]c5cccc(F)c35)C4)noc2c1` (stereo unspecified), `Fc1ccc2c(CCCN3C4CCCC3c3c([nH]c5ccc(F)cc35)C4)noc2c1` (stereo unspecified) is 9.9-fold lower in Ki: 133 nM for the first, 13.4 nM for the second.

First: O=C1CC2CCC(C1)N2CCCC(=O)c1ccc(F)cc1
Second: O=C(CCCN1C2CCCC1c1c([nH]c3ccccc13)C2)c1ccc(F)cc1 (stereo unspecified)
The Ki of the first is 630-fold higher: 533 nM for the first, 0.85 nM for the second.

Going from `O=C(CCCCN1C2CCCC1c1c([nH]c3ccc(F)cc13)C2)c1ccccc1` (stereo unspecified) to `O=C(CCCN1C2CCC1c1c([nH]c3ccc(F)cc13)C2)c1ccco1` (stereo unspecified), the Ki rises from 59.8 nM to 264 nM (4.4-fold).
